Measurements as given in patent US9353081B2, “Bicyclic dihydroquinoline-2-one derivatives” (Hoffmann-La Roche Inc., priority 2011, dated 2016).

What was measured:
human CYP11B2 = human CYP11B2 (Homo sapiens (Human), UniProt P19099); test: G-402 cellular enzyme assay, human CYP11B2 (aldosterone release, HTRF); format: cell-based; settings: G-402 cells expressing human CYP11B2; 1 μM Deoxycorticosterone
From the text: (§1) Specifically we developed stable G-402 cells expressing ectopically human CYP11B1, human CYP11B2, human CYP11A1, cynomolgus CYP11B1 or cynomolgus CYP11B2 enzyme activity.
(§2) The expression plasmids contains the ORF for either human/cyno CYP11B1 or CYP11B2 under the control of a suitable promoter (CMV-promoter) and a suitable resistance marker (neomycin). Using standard techniques the expression plasmid is transfected into G-402 cells and these cells are then selected for expressing the given resistance markers. Individual cell-clones are then selected and assessed for displaying the desired enzymatic activity using 11-Deoxycorticosterone (Cyp11B2) or 11-Deoxycortisol (Cyp11B1) as a substrate.
(§3) For assaying enzymatic activity, cells were plated onto 96 well plates and incubated for 16 h. An aliquot of the supernatant is then transferred and analyzed for the concentration of the expected product (Aldosterone for CYP11B2; Cortisol for CYP11B1). The concentrations of these steroids can be determined using HTRF assays from CisBio analyzing either Aldosterone or Cortisol.
(§4) Inhibition of the release of produced steroids can be used as a measure of the respective enzyme inhibition by test compounds added during the cellular enzyme assay. The dose dependent inhibition of enzymatic activity by a compound is calculated by means of plotting added inhibitor concentrations x-axes) vs. measured steroid/product level (y-axes). The inhibition is then calculated by fitting the following 4-parameter sigmoidal function (Morgan-Mercer-Flodin (MMF) model) to the raw data points using the least squares method:
(§5) [formula] wherein, A is the maximum y value, B is the EC50 factor determined using XLFit, C is the minimum y value and D is the slope value.
(§6) EC50 values for compounds claimed herein were tested with the G402-based assay system described. Cyp11B2 enzyme activity was tested in presence of 1 μM Deoxycorticosterone and variable amounts of inhibitors; Cyp11B1 enzyme activity was tested in presence of 1 μM Deoxycortisol and variable amounts of inhibitors.

human CYP11B1 = human CYP11B1 (Homo sapiens (Human), UniProt P15538); test: G-402 cellular enzyme assay, human CYP11B1 (cortisol release, HTRF); format: cell-based; settings: G-402 cells expressing human CYP11B1; 1 μM Deoxycortisol
From the text: as §1, §2, §3, §4, §5, §6

human CYP11B1, sequence (P15538 25-503): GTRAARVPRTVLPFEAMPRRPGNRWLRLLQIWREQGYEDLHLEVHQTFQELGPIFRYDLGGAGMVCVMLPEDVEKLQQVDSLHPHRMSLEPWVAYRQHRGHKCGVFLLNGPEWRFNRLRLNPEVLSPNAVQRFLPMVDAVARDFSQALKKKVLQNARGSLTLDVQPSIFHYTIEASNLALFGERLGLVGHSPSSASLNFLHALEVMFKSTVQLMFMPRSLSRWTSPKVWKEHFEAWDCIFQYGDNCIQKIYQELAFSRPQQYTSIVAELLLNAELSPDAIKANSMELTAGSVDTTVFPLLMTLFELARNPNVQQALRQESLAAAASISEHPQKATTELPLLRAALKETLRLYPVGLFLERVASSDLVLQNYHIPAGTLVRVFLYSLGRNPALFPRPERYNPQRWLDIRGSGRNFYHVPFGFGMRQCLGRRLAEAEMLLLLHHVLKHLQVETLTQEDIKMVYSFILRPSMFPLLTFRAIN
human CYP11B2, sequence (P19099 25-503): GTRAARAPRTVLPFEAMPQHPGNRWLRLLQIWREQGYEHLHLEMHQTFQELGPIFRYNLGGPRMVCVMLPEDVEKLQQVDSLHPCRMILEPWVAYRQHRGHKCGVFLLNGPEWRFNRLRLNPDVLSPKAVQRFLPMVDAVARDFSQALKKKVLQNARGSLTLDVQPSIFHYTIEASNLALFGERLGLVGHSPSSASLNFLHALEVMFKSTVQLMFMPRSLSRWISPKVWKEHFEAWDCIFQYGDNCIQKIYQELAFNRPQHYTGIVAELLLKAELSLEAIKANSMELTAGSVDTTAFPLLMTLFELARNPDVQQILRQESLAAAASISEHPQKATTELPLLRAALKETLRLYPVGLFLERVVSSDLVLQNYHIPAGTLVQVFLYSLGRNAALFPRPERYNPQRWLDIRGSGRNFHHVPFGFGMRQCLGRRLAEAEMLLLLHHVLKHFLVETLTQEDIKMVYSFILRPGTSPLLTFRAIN

Row | SMILES | EC50 (human CYP11B2) | EC50 (human CYP11B1)
1 | CN1C(=O)CCc2cc(-c3cncc4c3CCCN4CCNC(=O)OC(C)(C)C)ccc21 [Example 11, {2-[5-(1-Methyl-2-oxo-1,2,3,4-tetrahydro-quinolin-6-yl)-3,4-dihydro-2H-[1,7]naphthyridin-1-yl]-ethyl}-carbamic acid tert-butyl ester] | 23 nM | 420 nM
2 | CCS(=O)(=O)NC1CCc2c(-c3ccc4c(c3)CCC(=O)N4C)cncc21 (racemic) [Example 10, (rac)-N-(4-(1-Methyl-2-oxo-1,2,3,4-tetrahydroquinolin-6-yl)-6,7-dihydro-5H-cyclopenta[c]pyridin-7-yl)ethanesulfonamide] | 59 nM | 4170 nM
3 | CCC(=O)N[C@H]1c2cncc(-c3cc4c(cc3F)N(C)C(=O)CC4)c2CC[C@H]1F (single isomer, unassigned) [Example 55, (+)-N-[(7R,8S or 7S,8R)-7-Fluoro-4-(7-fluoro-1-methyl-2-oxo-1,2,3,4-tetrahydro-quinolin-6-yl)-5,6,7,8-tetrahydro-isoquinolin-8-yl]-propionamide] | 158 nM | 2760 nM
4 | CCS(=O)(=O)NC1CCCc2c(-c3cc4c(cc3Cl)N(C)C(=O)CC4)cncc21 (racemic) [Example 34, (rac)-Ethanesulfonic acid [4-(7-chloro-1-methyl-2-oxo-1,2,3,4-tetrahydro-quinolin-6-yl)-5,6,7,8-tetrahydro-isoquinolin-8-yl]-amide] | 386 nM | 34700 nM
5 | CC(=O)N[C@@H]1CCCc2c(-c3ccc4c(c3)CCC(=O)N4C)cncc21 [Example 63, N—[(R)-4-(1-Methyl-2-oxo-1,2,3,4-tetrahydro-quinolin-6-yl)-5,6,7,8-tetrahydro-isoquinolin-8-yl]-acetamide] | 4.8 nM | 1190 nM
6 | CCS(=O)(=O)NC1CCc2c(-c3cc4c(cc3F)N(C)C(=O)CC4)cncc21 (racemic) [Example 25, (rac)-N-(4-(7-Fluoro-1-methyl-2-oxo-1,2,3,4-tetrahydroquinolin-6-yl)-6,7-dihydro-5H-cyclopenta[c]pyridin-7-yl)ethanesulfonamide] | 33.4 nM | 2980 nM
7 | C[C@@H](O)C(=O)NC1CCCc2c(-c3ccc4c(c3)CCC(=O)N4C)cncc21 (single isomer, unassigned; (+)) [Example 18, (+)-(2R)-2-Hydroxy-N-((4R or 4S)-4-(1-methyl-2-oxo-1,2,3,4-tetrahydroquinolin-6-yl)-5,6,7,8-tetrahydroisoquinolin-8-yl)propanamide] | 27.9 nM | 1490 nM
8 | CCS(=O)(=O)NC1CCCc2c(-c3cc(Cl)c4c(c3)CCC(=O)N4C)cncc21 (single isomer, unassigned; (+)) [Example 38, (+)-Ethanesulfonic acid [(R or S)-4-(8-chloro-1-methyl-2-oxo-1,2,3,4-tetrahydro-quinolin-6-yl)-5,6,7,8-tetrahydro-isoquinolin-8-yl]-amide] | 422 nM | 15900 nM
9 | CCC(=O)NC1CCc2c(-c3ccc4c(c3)CCC(=O)N4C)cncc21 (racemic) [Example 7, (rac)-N-(4-(1-Methyl-2-oxo-1,2,3,4-tetrahydroquinolin-6-yl)-6,7-dihydro-5H-cyclopenta[c]pyridin-7-yl)propionamide] | 12 nM | 1110 nM
10 | CCC(=O)NC1CCc2c(-c3cc4c(cc3F)N(C)C(=O)CC4)cncc21 (single isomer, unassigned; (+)) [Example 24, (+)-(R or S)—N-(4-(7-Fluoro-1-methyl-2-oxo-1,2,3,4-tetrahydroquinolin-6-yl)-6,7-dihydro-5H-cyclopenta[c]pyridin-7-yl)propionamide] | 3.8 nM | 466 nM
11 | CCS(=O)(=O)NC1CCCc2c(-c3ccc4c(c3)CCC(=O)N4C)cncc21 (single isomer, unassigned; (+)) [Example 6, (+)-(S or R)—N-(4-(1-Methyl-2-oxo-1,2,3,4-tetrahydroquinolin-6-yl)-5,6,7,8-tetrahydroisoquinolin-8-yl)ethanesulfonamide] | 48 nM | 1750 nM
12 | CN1C(=O)CCc2cc(-c3cncc4c3CCC[C@H]4N)ccc21 [Example 61, (R)-6-(8-Amino-5,6,7,8-tetrahydroisoquinolin-4-yl)-1-methyl-3,4-dihydroquinolin-2(1H)-one] | 5.6 nM | 450 nM
13 | CCC(=O)N[C@H]1c2cncc(-c3ccc4c(c3)CCC(=O)N4C)c2CC[C@H]1C (single isomer, unassigned) [Example 49, (+)-N-[(7R,8R or 7S,8S)-7-Methyl-4-(1-methyl-2-oxo-1,2,3,4-tetrahydro-quinolin-6-yl)-5,6,7,8-tetrahydro-isoquinolin-8-yl]-propionamide] | 44.2 nM | 3950 nM
14 | C[C@H](O)C(=O)NC1CCCc2c(-c3ccc4c(c3)CCC(=O)N4C)cncc21 (stereo partly drawn) [Example 17, (2S)-2-Hydroxy-N-((4R,S)-4-(1-methyl-2-oxo-1,2,3,4-tetrahydroquinolin-6-yl)-5,6,7,8-tetrahydroisoquinolin-8-yl)propanamide] | 31.6 nM | 885 nM
15 | C[C@@H](O)C(=O)NC1CCCc2c(-c3ccc4c(c3)CCC(=O)N4C)cncc21 (stereo partly drawn) [Example 16, (2R)-2-Hydroxy-N-((4R,S)-4-(1-methyl-2-oxo-1,2,3,4-tetrahydroquinolin-6-yl)-5,6,7,8-tetrahydroisoquinolin-8-yl)propanamide] | 30.8 nM | 1050 nM
16 | CN1C(=O)CCc2cc(-c3cncc4c3CCCC4O)ccc21 (single isomer, unassigned) [Example 69, (R or S)-6-(8-Hydroxy-5,6,7,8-tetrahydro-isoquinolin-4-yl)-1-methyl-3,4-dihydroquinolin-2(1H)-one] | 2 nM | 54.1 nM
17 | C[C@H](O)C(=O)NC1CCCc2c(-c3ccc4c(c3)CCC(=O)N4C)cncc21 (single isomer, unassigned; (-)) [Example 20, (−)-(2S)-2-hydroxy-N-((4S or 4R)-4-(1-methyl-2-oxo-1,2,3,4-tetrahydroquinolin-6-yl)-5,6,7,8-tetrahydroisoquinolin-8-yl)propanamide] | 823 nM | 25500 nM
18 | CCS(=O)(=O)NC1CCCc2c(-c3cc4c(cc3F)N(C)C(=O)CC4)cncc21 (single isomer, unassigned; (+)) [Example 32, (+)-(R or S)-Ethanesulfonic acid [4-(7-fluoro-1-methyl-2-oxo-1,2,3,4-tetrahydro-quinolin-6-yl)-5,6,7,8-tetrahydro-isoquinolin-8-yl]-amide] | 78.2 nM | 4240 nM
19 | CCC(=O)N[C@H]1c2cncc(-c3ccc4c(c3)CCC(=O)N4C)c2CC[C@@H]1C (single isomer, unassigned) [Example 42, (+)-N-[(7S,8R or 7R,8S)-7-Methyl-4-(1-methyl-2-oxo-1,2,3,4-tetrahydro-quinolin-6-yl)-5,6,7,8-tetrahydro-isoquinolin-8-yl]-propionamide] | 14.5 nM | 524 nM
20 | CCS(=O)(=O)NC1CCCc2c(-c3cc4c(cc3F)N(C)C(=O)CC4)cncc21 (single isomer, unassigned; (-)) [Example 31, (−)-(S or R)-Ethanesulfonic acid [4-(7-fluoro-1-methyl-2-oxo-1,2,3,4-tetrahydro-quinolin-6-yl)-5,6,7,8-tetrahydro-isoquinolin-8-yl]-amide] | 1040 nM | 14500 nM
